Values after ≈ are worked out from the molar mass of the structure shown. Positions of bridges follow the written chain, without caps; N, C: chain ends. Non-standard residues stand in square brackets, D forms with d. Residues, ends and D or L forms follow the SMILES beside them. *: point of attachment. X1 = CC[C@H](C)CCCCC(=O)*; Dab = NCC[C@H](N)C(=O)O
Key:
[1] = tested on: colistin-resistant K. pneumoniae clinical isolates; test: Colistin susceptibility by broth microdilution (CLSI); assay type: cell-based, Klebsiella pneumoniae; settings: for COL MIC: broth microdilution
Experimental: (§1) Ten non-duplicate clinical isolates of colistin-resistant E. coli (EC) and ten non-duplicate clinical isolates of colistin-resistant K. pneumoniae (KP) were obtained from the bacterial repository of the Division of Infectious Diseases and Tropical Medicine, Department of Medicine, Faculty of Medicine Siriraj Hospital, Mahidol University. The species identification was conducted through standard biochemical tests. Antimicrobial susceptibility testing was carried out using the disk diffusion method following CLSI guidelines. Additionally, the assessment of colistin resistance in all isolates was performed by broth microdilution following CLSI recommendations. […] The amino acid sequences of BP203 and MAP-0403 J-2 were retrieved from previous studies. These peptides are BP100 and MAP-0403 analogs, respectively. […] Antibiotic disks and defibrinated sheep blood were obtained from Oxoid (Basingstoke, UK). All culture media were purchased from Becton Dickinson (Frankin Lakes, NJ, USA). All chemicals were obtained from Sigma-Aldrich (St. Louis, MO, USA).

[2] = tested on: colistin-resistant E. coli clinical isolates; test: Checkerboard assay for synergy testing; assay type: cell-based, Escherichia coli
Procedure, shortened: (§2)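 Two-fold serial dilutions of peptide and antibiotic, alone and in combination, in CAMHB against colistin-resistant clinical isolates at 5 × 10^5 CFU/mL, 37 °C for 20–24 h. MIC is the lowest concentration with no growth; FICI = sum of each agent's MIC in combination divided by its MIC alone.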

[3] = tested on: colistin-resistant K. pneumoniae clinical isolates; test: Checkerboard assay for synergy testing; assay type: cell-based, Klebsiella pneumoniae
Procedure, shortened: as §2

[4] = tested on: colistin-resistant E. coli clinical isolates; test: Colistin susceptibility by broth microdilution (CLSI); assay type: cell-based, Escherichia coli; settings: for COL MIC: broth microdilution
Experimental: as §1

[5] = tested on: MRC-5 (CCL-171) normal lung fibroblast cells; test: Cytotoxicity assay using MTT; assay type: cell-based, human; settings: 24 h exposure
Experimental: MRC-5 (CCL-171) cell line, a representative of normal lung fibroblast cells, was used to investigate the cytotoxic effects of two AMPs, BP203 and MAP-0403 J-2. The cells were grown in Dulbecco’s Modified Eagle Medium (DMEM, Cytiva Life Sciences, Marlborough, MA, USA), supplemented with 10% fetal bovine serum (FBS), 1% penicillin (10,000 U/mL) and streptomycin (10,000 μg/mL) (Gibco, Waltham, MA, USA). 2×10^4 cells were seeded into each well of a 96-well plate and allowed to adhere for 24 h. Then, these cells were subjected to exposure to a medium containing a prepared two-fold serial dilution of BP203 or MAP-0403 J-2. […] 3-(4,5-Dimethylthiazol-2-yl)-2,5-Diphenyltetrazolium Bromide (MTT) was introduced into each well to achieve a concentration of 0.5 mg/mL followed by 4 h. incubation. Subsequently, formazan crystals were dissolved through the addition of 100 μL of a solubilizing solution composed of 10% SDS in 0.1 N HCl and the developed color was measured using a microtiter plate reader at an optical density (OD) of 570 nm. Cell viability was calculated as follows: (ODsample/ODcontrol) × 100.

[6] = checkerboard BP203 x colistin, EC-01
[7] = checkerboard BP203 x colistin, EC-02
[8] = checkerboard BP203 x colistin, EC-03
[9] = checkerboard BP203 x colistin, EC-04
[10] = checkerboard BP203 x colistin, EC-05
[11] = checkerboard BP203 x colistin, EC-06
[12] = checkerboard BP203 x colistin, EC-07
[13] = checkerboard BP203 x colistin, EC-08
[14] = checkerboard BP203 x colistin, EC-09
[15] = checkerboard BP203 x colistin, EC-10
[16] = checkerboard MAP-0403 J-2 x colistin, EC-01
[17] = checkerboard MAP-0403 J-2 x colistin, EC-02
[18] = checkerboard MAP-0403 J-2 x colistin, EC-03
[19] = checkerboard MAP-0403 J-2 x colistin, EC-04
[20] = checkerboard MAP-0403 J-2 x colistin, EC-05
[21] = checkerboard MAP-0403 J-2 x colistin, EC-06
[22] = checkerboard MAP-0403 J-2 x colistin, EC-07
[23] = checkerboard MAP-0403 J-2 x colistin, EC-08
[24] = checkerboard MAP-0403 J-2 x colistin, EC-09
[25] = checkerboard MAP-0403 J-2 x colistin, EC-10
[26] = checkerboard BP203 x colistin, KP-01
[27] = checkerboard BP203 x colistin, KP-02
[28] = checkerboard BP203 x colistin, KP-03
[29] = checkerboard BP203 x colistin, KP-04
[30] = checkerboard BP203 x colistin, KP-05
[31] = checkerboard BP203 x colistin, KP-06
[32] = checkerboard BP203 x colistin, KP-07
[33] = checkerboard BP203 x colistin, KP-08
[34] = checkerboard BP203 x colistin, KP-09
[35] = checkerboard BP203 x colistin, KP-10
[36] = checkerboard MAP-0403 J-2 x colistin, KP-01
[37] = checkerboard MAP-0403 J-2 x colistin, KP-02
[38] = checkerboard MAP-0403 J-2 x colistin, KP-03
[39] = checkerboard MAP-0403 J-2 x colistin, KP-04
[40] = checkerboard MAP-0403 J-2 x colistin, KP-05
[41] = checkerboard MAP-0403 J-2 x colistin, KP-06
[42] = checkerboard MAP-0403 J-2 x colistin, KP-07
[43] = checkerboard MAP-0403 J-2 x colistin, KP-08
[44] = checkerboard MAP-0403 J-2 x colistin, KP-09
[45] = checkerboard MAP-0403 J-2 x colistin, KP-10

In the case of `CC[C@H](C)CCCCC(=O)N[C@@H](CCN)C(=O)N[C@H](C(=O)N[C@@H](CCN)C(=O)N[C@H]1CCNC(=O)[C@H]([C@@H](C)O)NC(=O)[C@H](CCN)NC(=O)[C@H](CCN)NC(=O)[C@H](CC(C)C)NC(=O)[C@@H](CC(C)C)NC(=O)[C@H](CCN)NC1=O)[C@@H](C)O` [COL, colistin] (X1-[Dab]T[Dab][Dab][Dab][dL]L[Dab][Dab]T; lactam 4-C), the “%Resistance” value [1] is reported as 100%, the “COL MIC” value ([1]; KP-01) is reported as 4 µg/mL and the “COL MIC” value ([1]; KP-02) is reported as 8 µg/mL. For the same compound, the “COL MIC” value ([1]; KP-03) was 32 µg/mL, the “COL MIC” value ([1]; KP-04) was 16 µg/mL and the “COL MIC” value ([1]; KP-05) was 16 µg/mL. For the same compound, the “COL MIC” value ([1]; KP-06) was 16 µg/mL, the “COL MIC” value ([1]; KP-07) was 64 µg/mL and the “COL MIC” value ([1]; KP-08) was 128 µg/mL. The “COL MIC” value ([1]; KP-09) was 32 µg/mL, the “COL MIC” value ([1]; KP-10) was 128 µg/mL and the “MICs, all isolates” value ([1]; all K. pneumoniae isolates) was no less than 4 µg/mL. The MIC alone [2, 6] was 4 µg/mL, the MIC combination [2, 6] was 2 µg/mL and the MIC alone [2, 7] was 4 µg/mL. It also gave an MIC combination [2, 7] of 2 µg/mL, an MIC alone [2, 8] of 4 µg/mL and an MIC combination [2, 8] of 1 µg/mL. The MIC alone [2, 9] was 4 µg/mL, the MIC combination [2, 9] was 2 µg/mL and the MIC alone [2, 10] was 4 µg/mL. It also gave an MIC combination [2, 10] of 2 µg/mL, an MIC alone [2, 11] of 4 µg/mL and an MIC combination [2, 11] of 4 µg/mL. The MIC alone [2, 12] was 8 µg/mL, the MIC combination [2, 12] was 4 µg/mL and the MIC alone [2, 13] was 8 µg/mL. It also gave an MIC combination [2, 13] of 8 µg/mL, an MIC alone [2, 14] of 16 µg/mL and an MIC combination [2, 14] of 8 µg/mL. The MIC alone [2, 15] was 16 µg/mL, the MIC combination [2, 15] was 2 µg/mL and the MIC alone [2, 16] was 4 µg/mL. The MIC combination [2, 16] was 0.5 µg/mL, the MIC alone [2, 17] was 4 µg/mL and the MIC combination [2, 17] was 1 µg/mL. For the same compound, the MIC alone [2, 18] was 4 µg/mL, the MIC combination [2, 18] was 0.5 µg/mL and the MIC alone [2, 19] was 4 µg/mL. For the same compound, the MIC combination [2, 19] was 2 µg/mL, the MIC alone [2, 20] was 4 µg/mL and the MIC combination [2, 20] was 1 µg/mL. For the same compound, the MIC alone [2, 21] was 4 µg/mL, the MIC combination [2, 21] was 2 µg/mL and the MIC alone [2, 22] was 8 µg/mL. For the same compound, the MIC combination [2, 22] was 2 µg/mL, the MIC alone [2, 23] was 8 µg/mL and the MIC combination [2, 23] was 2 µg/mL. It also gave an MIC alone [2, 24] of 16 µg/mL, an MIC combination [2, 24] of 4 µg/mL and an MIC alone [2, 25] of 16 µg/mL. For the same compound, the MIC combination [2, 25] was 4 µg/mL, the MIC alone [3, 26] was 4 µg/mL and the MIC combination [3, 26] was 4 µg/mL. The MIC alone [3, 27] was 8 µg/mL, the MIC combination [3, 27] was 8 µg/mL and the MIC alone [3, 28] was 32 µg/mL. The MIC combination [3, 28] was 32 µg/mL, the MIC alone [3, 29] was 16 µg/mL and the MIC combination [3, 29] was 16 µg/mL. The MIC alone [3, 30] was 16 µg/mL, the MIC combination [3, 30] was 16 µg/mL and the MIC alone [3, 31] was 16 µg/mL. The MIC combination [3, 31] was 16 µg/mL, the MIC alone [3, 32] was 64 µg/mL and the MIC combination [3, 32] was 0.5 µg/mL. For the same compound, the MIC alone [3, 33] was 128 µg/mL, the MIC combination [3, 33] was 128 µg/mL and the MIC alone [3, 34] was 32 µg/mL. For the same compound, the MIC combination [3, 34] was 16 µg/mL, the MIC alone [3, 35] was 128 µg/mL and the MIC combination [3, 35] was 64 µg/mL. For the same compound, the MIC alone [3, 36] was 4 µg/mL, the MIC combination [3, 36] was 4 µg/mL and the MIC alone [3, 37] was 8 µg/mL. It also gave an MIC combination [3, 37] of 8 µg/mL, an MIC alone [3, 38] of 32 µg/mL and an MIC combination [3, 38] of 32 µg/mL. The MIC alone [3, 39] was 16 µg/mL, the MIC combination [3, 39] was 16 µg/mL and the MIC alone [3, 40] was 16 µg/mL. The MIC combination [3, 40] was 16 µg/mL, the MIC alone [3, 41] was 16 µg/mL and the MIC combination [3, 41] was 16 µg/mL. It also gave an MIC alone [3, 42] of 64 µg/mL, an MIC combination [3, 42] of 128 µg/mL and an MIC alone [3, 43] of 128 µg/mL. The MIC combination [3, 43] was 128 µg/mL, the MIC alone [3, 44] was 32 µg/mL and the MIC combination [3, 44] was 32 µg/mL. The MIC alone [3, 45] was 128 µg/mL, the MIC combination [3, 45] was 64 µg/mL and the “%Resistance” value [4] was 100%. The “COL MIC” value ([4]; EC-01) was 4 µg/mL, the “COL MIC” value ([4]; EC-02) was 4 µg/mL and the “COL MIC” value ([4]; EC-03) was 4 µg/mL. The “COL MIC” value ([4]; EC-04) was 4 µg/mL, the “COL MIC” value ([4]; EC-05) was 4 µg/mL and the “COL MIC” value ([4]; EC-06) was 4 µg/mL. The “COL MIC” value ([4]; EC-07) was 8 µg/mL, the “COL MIC” value ([4]; EC-08) was 8 µg/mL and the “COL MIC” value ([4]; EC-09) was 16 µg/mL. The “COL MIC” value ([4]; EC-10) was 16 µg/mL and the “MICs, all isolates” value ([4]; all E. coli isolates) was no less than 4 µg/mL.
`CC[C@H](C)[C@H](NC(=O)CN)C(=O)NCC(=O)N[C@@H](C)C(=O)N[C@H](C(=O)N[C@@H](CC(C)C)C(=O)N[C@@H](CCCCN)C(=O)N[C@H](C(=O)N[C@@H](CC(C)C)C(=O)N[C@H](C(=O)N[C@H](C(=O)NCC(=O)N[C@@H](CC(C)C)C(=O)N1CCC[C@H]1C(=O)N[C@@H](C)C(=O)N[C@@H](CC(C)C)C(=O)N[C@H](C(=O)N[C@@H](CO)C(=O)N[C@@H](Cc1c[nH]c2ccccc12)C(=O)N[C@H](C(=O)N[C@@H](CCCCN)C(=O)N[C@@H](CCCNC(=N)N)C(=O)N[C@@H](CCCCN)C(=O)N[C@@H](CCCNC(=N)N)C(=O)N[C@@H](CCC(N)=O)C(=O)N[C@@H](CCC(N)=O)C(N)=O)[C@@H](C)CC)[C@@H](C)CC)[C@@H](C)O)[C@@H](C)O)C(C)C)C(C)C` [melittin] showed an IC50 [5] of 16.13 µg/mL (≈ 5.67 µM).
